The values that follow come from patent US20250090462A1, “LIPID COMPOUND AND PREPARATION METHOD THEREFOR, AND USE THEREOF” (South China University of Technology, priority 2022, published 2025).

A short description of series [1]: In vivo RNA imaging (IVIS) of repRNA-Luc delivery after intramuscular injection. On the set-up: species or system C57BL/6 mice. The conditions noted are these: for repRNA-Luc expression by IVIS: 3rd day after intramuscular injection, 150 ng repRNA-Luc, DSPC LNP; for course of expression values with time (IVIS total flux): after intramuscular injection of repRNA-Luc LNP. The text has this:
Ionizable lipid compounds 3-4-C8, 3-5-C8, 10-4-C8, 10-5-C8, and 11-4-C8 were used to deliver self-amplifying RNA (Rep RNA-Luc) encoding firefly luciferase (Luc) in C57BL/6 mice. After intramuscular injection in mice, the in vivo imaging system (IVIS) was used to detect on the 3rd, 5th, and 7th day after injection.
1) The specific steps are the same with the lipid compound delivering RNA test in performance test 3, the difference in this performance test, the experimental group: ionizable lipid compounds 3-4-C8, 3-5-C8, 10-4-C8, 10-5-C8 or 11-4-C8 and distearoyl phosphatidylcholine (DSPC), cholesterol (Cholesterol), distearoyl phosphatidylacetamide-polyethylene glycol (DSPE-PEG) or blank group are dissolved in anhydrous and non-enzymatic ethanol according to a certain concentration, the use of the ratio is ionizable lipid compounds 3-4-C8, 8-4-C8, 10-4-C8 or 11-4-C8:Cholesterol:DSPC:DSPE-PEG=40:48:10:2. A proper amount of repRNA-Luc was dissolved in sodium acetate buffer (the volume of sodium acetate buffer was twice the total volume of the lipid mixture, pH=5.3), the repRNA-Luc dissolved in the buffer was added into the lipid mixture solution and quickly mixed to assemble into lipid nanoparticles, the mixed solution was incubated at room temperature for 15 min, and then dialyzed in ultrapure water for 0.5 h using a dialysis bag (14000 MW), finally, 10% glucose solution was added to the lipid nanoparticle solution to adjust the osmotic pressure for intramuscular injection (LNP containing 150 ng of repRNA-Luc in each dose). Among them, the N/P ratio of ionizable lipid to mRNA (N/P ratio) is 24:1, which is the optimal ratio, that is, the molar ratio between the protonated amino group on the ionizable lipid and the phosphate group on the DNA.
FIG. 18 is the detection map of the in vivo imaging system for lipid nanoparticles injected into mice. FIG. 19 is an injection time and total flux of the lipid compound.

Series [2] in a line: Particle size, PDI and Zeta potential of lipid compound nanoparticles (DLS). It is filed as physicochemical. The conditions noted are these: LNP with pDNA-GFP-Luc, lipid compound:Cholesterol:DOPE:DSPE-PEG=40:48:10:2, N/P 24:1, pH=5.3. As to the method: Lipid compounds 3-2-C8, 3-3-C8, 3-4-C8, 3-5-C8, 10-2-C8, 10-3-C8, 10-4-C8 and 10-5-C8 were used as nanocarrier materials to encapsulate pDNA-GFP-Luc to test the particle size (Size), polymer dispersion index (PDI) and Zeta potential of the lipid nanoparticles.
Ionizable lipids 3-2-C8, 3-3-C8, 3-4-C8, 3-5-C8, 10-2-C8, 10-3-C8, 10-4-C8, 10-5-C8 and dioleoyl phosphatidyl ethanolamine (DOPE), cholesterol, distearoylphosphatidylacetamide-polyethylene glycol (DSPE-PEG) were dissolved in anhydrous ethanol at a certain concentration, the components were uniformly mixed according to a certain molar ratio of lipid compound:Cholesterol:DOPE:DSPE-PEG=40:48:10:2, at the same time, a proper amount of pDNA-GFP-Luc was dissolved in sodium acetate buffer (the volume of sodium acetate buffer was twice the total volume of lipid mixture, pH=5.3), and the pDNA-GFP-Luc dissolved in the buffer was taken into the lipid mixture solution, and quickly mixed to assemble into lipid nanoparticles, the mixed solution was incubated at room temperature for 15 min, and the particle size and potential were tested by dynamic light scattering instrument (DLS). The nitrogen-phosphorus ratio (N/P ratio) of ionizable lipid to pDNA (24:1) was the optimal ratio, that is, the molar ratio between the protonated amino group on the ionized lipid and the phosphate group on the DNA. 2) Analysis of experimental results:
FIG. 11 is the particle size test diagram of nanoparticles prepared by lipid compounds. Table 2 is the Zeta potential test results of nanoparticles prepared by lipid compounds.
The charge is 13.0±1.56-28.7±4.36 mV, which is consistent with the characteristics of lipid nanoparticles, the smaller particle sizes can exert the high permeability and long retention effect (EPR), leading to better accumulation in the tumor sites.

For the compound `CCCCCCCCC(CCCCCCCC)OC(=O)NCCCCOC(=O)CCN(CCC(=O)OCCCCNC(=O)OC(CCCCCCCC)CCCCCCCC)CCN1CCCC1` [3-4-C8], in series [1], the “repRNA-Luc expression by IVIS” value is “successfully expressed” and the “course of expression values with time (IVIS total flux)” value is recorded as “increased with time”. In series [2], this compound had a Zeta potential of 20.2 ± 3.07 mV.
As to `CCCCCCCCC(CCCCCCCC)OC(=O)NCCCCOC(=O)CCN(CCC(=O)OCCCCNC(=O)OC(CCCCCCCC)CCCCCCCC)CCN(C)C` [10-4-C8], in series [1], the “repRNA-Luc expression by IVIS” value is listed as “successfully expressed” and the “course of expression values with time (IVIS total flux)” value is “increased with time”. The Zeta potential in series [2] came to 23.5 ± 4.87 mV.
Take `CCCCCCCCC(CCCCCCCC)OC(=O)NCCOC(=O)CCN(CCC(=O)OCCNC(=O)OC(CCCCCCCC)CCCCCCCC)CCN1CCCC1` [3-2-C8]: the Zeta potential in series [2] was found to be 13.0 ± 1.56 mV.
With `CCCCCCCCC(CCCCCCCC)OC(=O)NCCOC(=O)CCN(CCC(=O)OCCNC(=O)OC(CCCCCCCC)CCCCCCCC)CCN(C)C` [10-2-C8], the Zeta potential in series [2] was 20.7 ± 2.77 mV.
